Key:
Stellaria media = test: Test Example 4: herbicidal effect by application to foliage (diluvial soil, plastic box); type: in vivo; details: for P (Stellaria media) herbicidal effect: application to foliage, application herbicide amount 320 g/ha; for P (Stellaria media) herbicidal effect grade: foliage application
How it was run: (§1)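 Scores run from 0 (herbicidal ratio ≤5%) to 5 (≥90%, almost fully withered) and were assessed three weeks after foliar spraying. Seedlings had been raised for 14 days at 25-30° C in sterilized diluvial soil before treatment, with the emulsion diluted in water to the stated g/ha dose.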

Amaranthus retroflexus = test: as above; type: in vivo; details: for N (Amaranthus retroflexus) herbicidal effect: application to foliage, application herbicide amount 320 g/ha; for N (Amaranthus retroflexus) herbicidal effect grade: foliage application
How it was run: as §1

Zea mays = test: Test Example 4: effect on crop by application to foliage (diluvial soil, plastic box); type: in vivo; details: for b (Zea mays) effect on crop: application to foliage, application herbicide amount 320 g/ha
How it was run: as §1

Cyperus difformis = test: Test Example 3: herbicidal effect by application to foliage (Wagner pot, water depth 0.1-0.5 cm); type: in vivo; details: Nineteenth Table; for E (herbicidal effect grade): application to foliage
How it was run: (§2)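 Alluvial soil in 1/10000 are Wagner pots, sown and grown 14 days in a 25–30 °C greenhouse. An emulsifiable concentrate diluted in water to the set dose (g/ha) was sprayed on stems and leaves. Effect scored three weeks later on a 0–5 scale: 5 = ≥90% herbicidal ratio, 0 = ≤5%.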

[1] = test system: Echinochloa crus-galli var. crus-galli; test: as above; type: in vivo; details: Nineteenth Table; for H (herbicidal effect grade): application to foliage
How it was run: as §2

Leptochloa chinensis = test: as above; type: in vivo; details: Nineteenth Table; for D (herbicidal effect grade): application to foliage
How it was run: as §2

[2] = application herbicide amount 400 g/ha
[3] = application herbicide amount 320 g/ha
[4] = Application herbicide amount 288 g/ha
[5] = application herbicide amount 288 g/ha
[6] = application herbicide amount 192 g/ha

SMILES | P (Stellaria media) herbicidal effect (Stellaria media) | N (Amaranthus retroflexus) herbicidal effect (Amaranthus retroflexus) | b (Zea mays) effect on crop (Zea mays) | E (Cyperus difformis) herbicidal ratio grade (Cyperus difformis; [3]) | H (Echinochloa crus-galli var. crus-galli) herbicidal ratio grade [1, 3] | D (Leptochloa chinensis) herbicidal ratio grade (Leptochloa chinensis; [3]) | further results
Cc1nnc(NC(=O)c2ccc(C(F)(F)F)n3c(C(C)C)nnc23)o1 [1-004, 3-Isopropyl-N-(5-methyl-1,3,4-oxadiazol-2-yl)-5-(trifluoromethyl)-[1,2,4]triazolo[4,3-a]pyridine-8-carboxamide] | 5 (Herbicidal ratio of 90% or more (almost completely withered)) | 4 (Herbicidal ratio of 70% or more and less than 90%) | 0 (Herbicidal ratio of 5% or less (almost no effect)) |  |  |  | melting point: 176 to 178 °C; E (Cyperus difformis) herbicidal ratio grade (Cyperus difformis; [2]): 5 (Herbicidal ratio of 90% or more (almost completely withered)); H (Echinochloa crus-galli var. crus-galli) herbicidal ratio grade [1, 2]: 4 (Herbicidal ratio of 70% or more and less than 90%); D (Leptochloa chinensis) herbicidal ratio grade (Leptochloa chinensis; [2]): 5 (Herbicidal ratio of 90% or more (almost completely withered))
CSc1nnc2c(C(=O)Nc3nnc(C)o3)ccc(C(F)(F)F)n12 [1-018, N-(5-Methyl-1,3,4-oxadiazol-2-yl)-3-(methylthio)-5-(trifluoromethyl)-[1,2,4]triazol o[4,3-a]pyridine-8-carboxamide] | 4 (Herbicidal ratio of 70% or more and less than 90%) | 4 (Herbicidal ratio of 70% or more and less than 90%) | 0 (Herbicidal ratio of 5% or less (almost no effect)) | 4 (Herbicidal ratio of 70% or more and less than 90%) | 4 (Herbicidal ratio of 70% or more and less than 90%) | 4 (Herbicidal ratio of 70% or more and less than 90%) | melting point: 230 to 233 °C
CC(C)c1nnc2c(C(=O)Nc3nnco3)ccc(C(F)(F)F)n12 [1-050] | 5 (Herbicidal ratio of 90% or more (almost completely withered)) | 5 (Herbicidal ratio of 90% or more (almost completely withered)) | 1 (Herbicidal ratio of 5% or more and less than 20%) | 5 (Herbicidal ratio of 90% or more (almost completely withered)) | 5 (Herbicidal ratio of 90% or more (almost completely withered)) | 5 (Herbicidal ratio of 90% or more (almost completely withered)) | 
CC(C)c1nnc2c(C(=O)Nc3nnc(C4CC4)o3)ccc(C(F)(F)F)n12 [1-051] | 3 (Herbicidal ratio of 40% or more and less than 70%) | 3 (Herbicidal ratio of 40% or more and less than 70%) | 0 (Herbicidal ratio of 5% or less (almost no effect)) | 4 (Herbicidal ratio of 70% or more and less than 90%) | 4 (Herbicidal ratio of 70% or more and less than 90%) | 5 (Herbicidal ratio of 90% or more (almost completely withered)) | 
COCCc1nnc(NC(=O)c2ccc(C(F)(F)F)n3c(C(C)C)nnc23)o1 [1-052] | 2 (Herbicidal ratio of 20% or more and less than 40%) | 4 (Herbicidal ratio of 70% or more and less than 90%) | 0 (Herbicidal ratio of 5% or less (almost no effect)) | 5 (Herbicidal ratio of 90% or more (almost completely withered)) | 4 (Herbicidal ratio of 70% or more and less than 90%) | 5 (Herbicidal ratio of 90% or more (almost completely withered)) | 
Cc1nnc(NC(=O)c2ccc(C(F)F)n3c(C(C)C)nnc23)o1 [1-053] | 2 (Herbicidal ratio of 20% or more and less than 40%) | 4 (Herbicidal ratio of 70% or more and less than 90%) | 0 (Herbicidal ratio of 5% or less (almost no effect)) | 4 (Herbicidal ratio of 70% or more and less than 90%) | 4 (Herbicidal ratio of 70% or more and less than 90%) | 4 (Herbicidal ratio of 70% or more and less than 90%) | 
C=CCSc1nnc2c(C(=O)Nc3nnco3)ccc(C(F)(F)F)n12 [1-128] |  |  |  |  |  |  | P (Stellaria media) herbicidal effect grade (Stellaria media; [4]): 5 (Herbicidal ratio of 90% or more (almost completely withered)); N (Amaranthus retroflexus) herbicidal effect grade (Amaranthus retroflexus; [4]): 3 (Herbicidal ratio of 40% or more and less than 70%); c (Zea mays) effect on crop grade (Zea mays; Application herbicide amount 288 g/ha, foliage application): 0 (Herbicidal ratio of 5% or less (almost no effect)); E (herbicidal effect grade) (Cyperus difformis; [5]): 3 (Herbicidal ratio of 40% or more and less than 70%); H (herbicidal effect grade) [1, 5]: 4 (Herbicidal ratio of 70% or more and less than 90%); D (herbicidal effect grade) (Leptochloa chinensis; [5]): 3 (Herbicidal ratio of 40% or more and less than 70%)
Cc1cc(C(=O)Nc2nnnn2C)c2nnc(C(C)C)n2c1C(F)(F)F [2-050] |  |  |  |  |  |  | P (Stellaria media) herbicidal effect grade (Stellaria media; 192 g/ha): 3 (Herbicidal ratio of 40% or more and less than 70%); N (Amaranthus retroflexus) herbicidal effect grade (Amaranthus retroflexus; 192 g/ha): 2 (Herbicidal ratio of 20% or more and less than 40%); b (Zea mays) effect on crop grade (Zea mays; foliage application, 192 g/ha): 0 (Herbicidal ratio of 5% or less (almost no effect)); E (herbicidal effect grade) (Cyperus difformis; [6]): 3 (Herbicidal ratio of 40% or more and less than 70%); H (herbicidal effect grade) [1, 6]: 4 (Herbicidal ratio of 70% or more and less than 90%); D (herbicidal effect grade) (Leptochloa chinensis; [6]): 3 (Herbicidal ratio of 40% or more and less than 70%)

— US9708314B2, “Heterocyclic amide compound” (NISSAN CHEMICAL INDUSTRIES, LTD., priority 2013, dated 2017)
